Source: patent US8188049B2, “Peptides having activities of epidermal growth factor and its uses” (Caregen Co., Ltd., priority 2006, dated 2012)

Tests used:
Human keratinocytes = experiment: Cell adherency to peptide-pretreated culture dishes; format: cell-based; conditions: 24 hr
Method: To analyze effects of peptides of this invention on proliferation of keratinocytes, SRB (Sulforhodamine B) colorimetric assay was carried out using HaCaT kerationcyte according to Rizzino et al method (Rizzino, et al. Cancer Res., 48:4266 (1988)). HaCaT ketatinocytes (The Korean Cell Line Bank) were cultured in 250 ml-flasks containing EMEM (Eagle's minimal essential media, Gibco, U.S.A.) supplemented with […] (fetal bovine serum). HaCaT ketatinocytes cultured were treated with 0.25% trypsin solution to detach cells from the bottom of culture flasks and centrifuged to collect cell pellets. Cells were resuspended in EMEM not containing FBS, its aliquot (4×10^3) cells was added to each well of 96-well plates and cultured under 7% CO2 for 24 hr at 37° C. After 24-hr culture, the medium was changed with a fresh medium not containing serum and cells were incubated with human EGF or the tri-decapeptide (10 ng/ml or 1,000 ng/ml) dissolved in 10% DMSO for 72 hr under the same conditions as described above. After removing supernatants, cells were washed once using PBS (phosphate buffered saline) and incubated with SRB solution (Sigma-Aldrich). Cells were washed with PBS and observed under a microscope to examine cell viability (FIG. 3). In addition, absorbance at 590 nm was measured to analyze cell proliferation (FIG. 4). […]

HaCaT keratinocytes = experiment: SRB colorimetric assay, growth of HaCaT keratinocytes; format: cell-based, human; conditions: 72 hr; for cell growth / proliferation of keratinocytes (absorbance at 590 nm): 10 ng/ml or 1,000 ng/ml, serum-free
Method: To analyze effects of peptides of this invention on proliferation of keratinocytes, SRB (Sulforhodamine B) colorimetric assay was carried out using HaCaT kerationcyte according to Rizzino et al method (Rizzino, et al. Cancer Res., 48:4266 (1988)). HaCaT ketatinocytes (The Korean Cell Line Bank) were cultured in 250 ml-flasks containing EMEM (Eagle's minimal essential media, Gibco, U.S.A.) supplemented with […] (fetal bovine serum). HaCaT ketatinocytes cultured were treated with 0.25% trypsin solution to detach cells from the bottom of culture flasks and centrifuged to collect cell pellets. Cells were resuspended in EMEM not containing FBS, its aliquot (4×10^3) cells was added to each well of 96-well plates and cultured under 7% CO2 for 24 hr at 37° C. After 24-hr culture, the medium was changed with a fresh medium not containing serum and cells were incubated with human EGF or the tri-decapeptide (10 ng/ml or 1,000 ng/ml) dissolved in 10% DMSO for 72 hr under the same conditions as described above. After removing supernatants, cells were washed once using PBS (phosphate buffered saline) and incubated with SRB solution (Sigma-Aldrich). Cells were washed with PBS and observed under a microscope to examine cell viability (FIG. 3). In addition, absorbance at 590 nm was measured to analyze cell proliferation (FIG. 4). Cell adherency to culture dishes was tested using non-treated culture dishes and peptide-pretreated culture dishes. Human keratinocytes were plated on the culture dishes and then incubated for 24 hr, followed by observation under a microscope.

hyaluronic acid = experiment: Hyaluronic acid level by ELISA; format: cell-based, human; conditions: HaCat, 5 μmole, 72 hr
Method: Furthermore, HaCat cell lines were incubated for 72 hr with 5 μmole of the present tridecapeptides and then the level of hyaluronic acid, a marker indicating the improvement in skin wrinkle, was measured using Hyaluronic acid ELISA kit (Echelon Biosciences Inc, USA) (FIG. 8).

EGF = experiment: Autocrine effect: EGF level in culture by ELISA; format: cell-based, human; conditions: HaCat, 1 μg/ml, 6 days
Method: For examining autocrine effects, HaCat cell lines were incubated for 6 days with the tridecapeptides of this invention (1 μg/ml) and then the level of EGF in culture was measured using the ELISA kit (R&D, USA).

NIH-3T3 cell = experiment: Stability of tridecapeptide: residual activity by MTT assay after storage at 37° C; format: physicochemical; conditions: 50 mM Tris-HCl pH 8.0, 37° C, days 0-100; peptide 10 μg/ml, EGF 1 μg/ml; MTT on NIH-3T3
Method: To evaluate stability of the synthesized and purified tridecapeptide of Example 1, the tridecapeptide was dissolved in 50 mM Tris-HCl (pH 8.0) to a concentration of 10 μg/ml. The recombinant EGF protein (Sigma-Aldrich) produced in E. coli was prepared as a control in the same buffer to a concentration of 1 μg/ml. The prepared solutions were introduced into glass vials and kept to stand at 37° C. Afterwards, the solutions were taken on days 0, 1, 10, 25, 50, 75 and 100 and subjected to MTT assay (Scudiero, D. A., et al. Cancer Res. 48:4827-4833 (1988)) using NIH-3T3 cell (Korean Cell Line Bank) to determine residual activities of the peptide and EGF (FIG. 2). The results were given as relative values to the activity (100%) of sample taken on day 0.

NIH3T3 cells = experiment: Cell motility after scratching the culture dish; format: cell-based; conditions: NIH3T3, 1 μg/ml, 1 and 3 day treatment
Method: We analyzed cell motility to further verify cell proliferation potency. NIH3T3 cells were plated on 60 mm-culture dishes and cultured to a suitable fluency. The bottom surface of culture dishes was scratched using pipette and incubated with 1 μg/ml of the present peptides, followed by observing cell motility. In FIG. 6, panels A and B show cell samples non-treated with peptides and panels C and D, cell samples treated with 1 μg/ml peptides. Images of A and C were taken after 1 day-treatment, and those of B and D after 3 day-treatment.

[1] = listed as peptide of this invention

Substance | number of cells adhered to culture dishes vs non-treated culture dishes (Human keratinocytes; [1]) | number of cells adhered to culture dishes vs non-treated culture dishes (Human keratinocytes; listed as peptides of this invention) | cell growth / proliferation of keratinocytes (absorbance at 590 nm) (HaCaT keratinocytes) | cell growth / proliferation of keratinocytes (absorbance at 590 nm) (HaCaT keratinocytes; [1]) | cell viability (microscope) (HaCaT keratinocytes; SRB staining) | level of hyaluronic acid (hyaluronic acid) | level of EGF in culture (autocrine effect) (EGF) | level of EGF in culture (autocrine effect) (EGF; listed as present peptide) | residual activity relative to day 0 (100%) (NIH-3T3 cell) | cell motility (NIH3T3 cells)
NH2-Cys-Met-Tyr-Ile-Glu-Gly-Gly-Gly-Gly-Arg-Gly-Asp-Gly-OH (H-CMYIEGGGGRGDG-OH) [tridecapeptide] | significantly high potency | about three-fold greater | promotes the growth of human keratinocytes in a dose-dependent manner | significantly high potency | significantly high potency | significantly increased | significantly high autocrine effects on EGF | considerable increase | not to be decreased | promote cell motility
recombinant EGF protein: recombinant EGF protein (Sigma-Aldrich) produced in E. coli, used as control [reference compound] |  |  |  |  |  |  |  |  | sharply decreased | 
